Assay results published in patent US4246280A, “20-Alkoxy-16-alkyl-prostadienoic acid derivatives” (priority 1974, dated 1981).

Key:
[1] = Effect on air-way resistance (Konzett and Rossler; histamine-induced broncho-constriction, intraduodenal administration); type: in vivo, guinea-pig; conditions: Cavia porcellus, 0.5 h, read-out: (B) Effect on airway resistance, ED50
Description: III. Effect on air-way resistance
The air-way resistance of the guinea-pig lung was determined by the method of Konzett and Rossler (Arch. exp. Path. Pharmak., 195, 71-74(1940)). The bronchorelaxing activity of prostaglandins were expressed in terms of protective effect against broncho-constriction elicited by intravenous injection of histamine (3 μg/kg). Histamine was injected 30 min after intraduodenal administration of test compound to urethane anesthetized and artificially ventilated guinea-pigs.

[2] = Diarrhea-producing effect, oral, guinea-pigs; conditions: guinea pig, in vivo, 2hr to next morning, read-out: (A) Diarrhea-producing effect (b), ED50
Description: II. Diaarrhea-producing effect
Test compounds were administered orally to guinea-pigs. The appearance of diarrhea (loose or watery feces) at 2hr, 3hr, 4hr, 5hr and next morning was noted.

[3] = Antiasthmatic effect, aerosol (protection against sneezing induced by histamine aerosol in guinea-pigs); type: in vivo; conditions: aerosol of test compound 15 sec, histamine 0.1% aerosol
Description: Guinea-pigs were placed in a chamber and sprayed for 10 sec with an aerosol of histamine solution (0.1%) and onset of sneezing was recorded and animals with control time of 70-100 sec were selected. These animals were sprayed for 15 sec with an aerosol of test compounds. After 45 sec, sprayed histamine and observed for 3 min it was. […] The percent of animals protected was determined.

[4] = Antiasthmatic effect, oral (protection against histamine spray 30 min after oral administration in guinea-pigs); type: in vivo; conditions: for ED50: Cavia porcellus, 0.5 h, read-out: Antiasthmatic effect, Oral (a), ED50; for b/a: ratio of diarrhea ED50 (b) to oral antiasthmatic ED50 (a)
Description: Guinea-pigs were sprayed for 10 sec with histamine 30 min after oral administration of test compounds and observed for 3 min. The percent of aminals protected was determined.

[5] = guinea-pigs, oral, histamine 30 min after administration

| Structure (SMILES) | ED50 [1] [mg/kg] | TD50 [2] [mg/kg] | Antiasthmatic effect, Aerosol, ED50 [3] [µg/mL] | ED50 ([4]; po) [mg/kg] | b/a [4] | ED50 ([1]; guinea-pigs, intraduodenal, histamine 3 μg/kg i.v. 30 min later) [mg/kg] | ED50 [4, 5] [mg/kg] | antiasthmatic effect upon oral administration (in words) ([4]; guinea-pigs, oral) |
| --- | --- | --- | --- | --- | --- | --- | --- | --- |
| COCCCCC(C)C(O)/C=C/[C@H]1[C@H](O)CC(=O)[C@@H]1C/C=C\CCCC(=O)O (stereo partly drawn) [Example 3, 11α,15-dihydroxy-20-methoxy-16-methyl-9-oxo-5(cis)-13(trans)prostadienoic acid] | 0.0135 | 0.12 | 0.037 | 0.0098 | 12.2 | – | – | – |
| CCCCC[C@H](O)/C=C/[C@H]1[C@H](O)CC(=O)[C@@H]1C/C=C\CCCC(=O)O [Prostaglandin E2] | – | – | 0.15 | – | – | > 0.8 | > 0.8 | no antiasthmatic effect upon oral administration |
| COCCCCCC(O)/C=C/[C@H]1[C@H](O)CC(=O)[C@@H]1C/C=C\CCCC(=O)O (stereo partly drawn) [20-methoxy-PGE2, 11α,15-dihydroxy-20-methoxy-9-oxo-5(cis)-13(trans)prostadienoic acid] | – | – | 0.15 | – | – | – | > 0.8 | no antiasthmatic effect upon oral administration |
| CCCC[C@@H](C)C(O)/C=C/[C@H]1[C@H](O)CC(=O)[C@@H]1C/C=C\CCCC(=O)O (stereo partly drawn) [11α,15-dihydroxy-16(R)-methyl-9-oxo-5(cis)-13(trans)prostadienoic acid] | – | 0.025 | 0.011 | 0.0175 | 1.43 | – | – | – |
| CCCCC(C)C(O)/C=C/[C@H]1[C@H](O)CC(=O)[C@@H]1C/C=C\CCCC(=O)O (stereo partly drawn) [11α,15-dihydroxy-16-methyl-9-oxo-5(cis)-13(trans)prostadienoic acid] | – | 0.1 | 0.009 | 0.025 | 4.0 | – | – | – |
| COCCCC[C@H](C)C(O)/C=C/[C@H]1[C@H](O)CC(=O)[C@@H]1C/C=C\CCCC(=O)OC (stereo partly drawn) [Example 7 ([α]D^25-58.0°), 11α,15-dihydroxy-20-methoxy-16(S)-methyl-9-oxo-5(cis)-13(trans)prostadienoic acid methyl ester] | – | 0.145 | – | 0.016 | 9.06 | – | – | – |
| COCCCC[C@H](C)C(O)/C=C/[C@H]1[C@H](O)CC(=O)[C@@H]1C/C=C\CCCC(=O)O (stereo partly drawn) [Example 6, 11α,15-dihydroxy-20-methoxy-16(S)-methyl-9-oxo-5(cis)-13(trans)prostadienoic acid] | – | 0.14 | – | 0.71 | 20.0 | – | – | – |
| COCCCCC(C)C(O)/C=C/[C@H]1[C@H](O)CC(=O)[C@@H]1C/C=C\CCCC(=O)OC (stereo partly drawn) [Example 7 ([α]D^25-66.4°), 11α,15-dihydroxy-20-methoxy-16-methyl-9-oxo-5(cis)-13(trans)prostadienoic acid methyl ester] | – | 0.051 | – | 0.0053 | 9.62 | – | – | – |
